Measured values reported in US11413278B2, “Compounds and methods for promoting stress resistance” (priority 2015, dated 2022).
Where two headings read alike, the source gives them in different places.

Experiments:
WI-38 cells [1] = test: CdCl2 (cadmium) resistance assay; assay type: cell-based, human; details: for fold induction at 10 µM: Homo sapiens, 12 h, normalized ATP measurement; for Assay 4: H2O2- & Cd-resistant / Assay 2: Cadmium-resistant: YES/NO; for Assay 2: Cadmium-resistant: * indicates partial
Summary of the method: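 Resistance to CdCl2 or MMS stress (12 h exposure) was scored in WI-38 fibroblasts pretreated with compound at 0.25–20 μM final, five doses, technical triplicates. MMS plates had compound added 24 h before MMS, after a shift to serum-free DMEM+2% BSA. Significance came from a global variance t-test over two independent runs.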

[2] = system: human dermal fibroblast (HDF) primary cells; test: H2O2-resistance in primary human dermal fibroblasts; assay type: cell-based; details: for fold induction at 10 µM: Homo sapiens; for Assay 6: H2O2-resistant, at 10 uM, human dermal fibroblast (HDF) primary cells: YES/NO
mTOR = mTOR inhibition (RPS6 phosphorylation status), In-Cell Western; assay type: cell-based, human
Procedure: In-Cell Western assays were performed, following a standard immuno-staining protocol. Briefly, WI-38 cells were treated with small molecules for 24 hrs, and then processed and incubated with primary antibody cocktail (Cell Signaling, mouse anti-RPS, 1:25; rabbit-anti-pRPS6-(Ser-235/236), 1:100) overnight at 4° C. Next day, samples were processed and incubated with fluorophore-conjugated secondary antibodies (Cell Signaling, DyLight 680-goat anti-mouse, 1:500; DyLight 800-goat anti-rabbit, 1:1,000). Images were collected on an Odyssey Imager (LI-COR) and analyzed with the Image Studio Lite software (version 5.0.21).
Mammalian target of rapamycin (mTOR) is a crucial regulator of cell growth and metabolism and has been implicated in aging and many diseases, including cancer, diabetes and neurological diseases (Dazert and Hall, 2011; Zoncu et al., 2011). […] In addition, the anti-diabetes drug metformin (Kalender et al., 2010), as well as other AMPK activators such as 2-deoxy-D-glucose (Inoki et al., 2003) and AICAR (Shaw et al., 2004), could inhibit mTORC1. Applicants examined the effects of our molecules (at three doses, 5 μM, 10 μM and 20 μM) on the phosphorylation status of ribosomal protein S6 (RPS6), a readout of mTOR activity, to ask whether they could inhibit mTOR.
In-Cell Western assays were performed, following the same procedures to analyze DNA-damage markers. WI-38 cells were incubated with small molecules for 24 hrs, and then processed and incubated with primary antibody cocktail (mouse anti-RPS, 1:25; rabbit-anti-pRPS6, 1:100) overnight at 4° C. Next day, samples were processed and incubated with fluorophore-conjugated secondary antibodies (goat anti-mouse, 1:500; goat anti-rabbit, 1:1,000) in antibody dilution buffer. Images were collected on an Odyssey Imager (LI-COR) and analyzed with the Image Studio Lite software.

WI-38 cells [3] = test: Long-term effects on cell viability (5 days, ATP; morphology, PI imaging); assay type: cell-based; details: 10 μM; for Luminescence signal for ATP measurement, day-1 Average / Luminescence signal for ATP measurement, day-2 Average / Luminescence signal for ATP measurement, day-3 Average / Luminescence signal for ATP measurement, day-4 Average / Luminescence signal for ATP measurement, day-5 Average / viability at 10 µM: Batch 1; for Luminescence signal for ATP measurement, day-1 Average / Luminescence signal for ATP measurement, day-2 Average / Luminescence signal for ATP measurement, day-3 Average / Luminescence signal for ATP measurement, day-4 Average / Luminescence signal for ATP measurement, day-5 Average: n = 6, day-0 luminescence = 320956 ± 24708; for viability at 10 µM: Homo sapiens, WI-38, 120 h, DMSO ctrl = 100.0%, read-out: ATP luminescence by day-5 normalized; for Luminescence signal for ATP measurement, day-5 Average / viability at 10 µM: day-5; for O = Potential toxicity / Q = Potential toxicity: human, 5 days;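 as to Luminescence signal for ATP measurement, day-2 Average: compounds at 10 µM with ATP read daily over 5 days of treatment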;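 as to Luminescence signal for ATP measurement, day-3 Average: compounds at 10 µM with ATP read daily over 5 days of treatment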;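 as to Luminescence signal for ATP measurement, day-4 Average: compounds at 10 µM with ATP read daily over 5 days of treatment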;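 as to Luminescence signal for ATP measurement, day-5 Average: compounds at 10 µM with ATP read daily over 5 days of treatment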
Procedure: In addition, cell death was scored by PI-imaging on day 2 and day 5 of treatment.
Applicants introduced molecules (at 10 uM final concentration) to WI-38 fibroblasts and then assayed cell viability (through ATP measurement) everyday, during a course of 5 days of continuous treatment. […] Applicants also examined the morphology and scored cell death (propidium iodide staining) for cells treated with the above molecules. Of these 14 molecules, some appeared to cause cell toxicity. […] Despite the observed long-term toxicity, these molecules are still interesting as they may act as anti-tumor agents in vivo, should they have more pronounced cytotoxicity on highly proliferative tumor cells. When cells were incubated with these molecules for ˜24 hrs and then subject to hydrogen peroxide for 3 hrs, these molecules are all protective. […] Some of these small molecules may be toxic by themselves under certain conditions, but by inducing protective mechanisms, they may trigger “hormesis” and therefore protect cells from oxidative stress.

WI-38 cells [4] = details: for PI cell-death imaging without H2O2 (indicating potential toxicity): Assay 8(k), without H2O2, at 10 uM; for Percentage of propidium iodide-positive (dead) cells under normal conditions (qualitative) / PI-positive dead cells under normal conditions: WI-38, no H2O2; for PI-positive dead cells under normal conditions: control 0.4±0.2%; for Percentage of propidium iodide-positive dead cells (no H2O2 stress treatment), at 10 uM: negative control 0.41% ± 0.23%
Procedure: WI-38 cells were seeded on 384-well plates for 24 hrs and then incubated with small molecules for 24 hrs. […] Images were collected on an INCell Analyzer 2000 (GE) and analyzed with the Developer software.

[5] = Exp. 1, WI-38 cells, read-out: Exp. 1, under Cd2Cl2 stress treatment, at 10 uM (fold change)
[6] = Exp. 2, WI-38 cells, read-out: Exp. 2, under Cd2Cl2 stress treatment, at 10 uM (fold change)
[7] = WI-38 cells, 10 μM, both stressors
[8] = score in summary of 38 core set hits
[9] = Experiment 1, HDF cells, read-out: Experiment 1, HDF cells (under H2O2 stress treatment), at 10 uM (fold change)
[10] = Experiment 2, HDF cells, read-out: Experiment 2, HDF cells (under H2O2 stress treatment), at 10 uM (fold change)

Row | SMILES | CdCl2-resistant (WI-38 cells [1]) | H2O2- & CdCl2-resistant (WI-38 cells [1]) | fold induction at 10 µM (WI-38 cells [1]; [5]) | fold induction at 10 µM (WI-38 cells [1]; [6]) | CdCl2-resistant (WI-38 cells [1]; WI-38 cells, 10 μM) | H2O2- & CdCl2-resistant (WI-38 cells [1]; [7]) | Assay 4: H2O2- & Cd-resistant (WI-38 cells [1]) | Assay 2: Cadmium-resistant (WI-38 cells [1]) | A = Cadmium resistant (WI-38 cells [1]; [8]) | A = Cadmium resistant (WI-38 cells [1]; summary score) | C = H2O2- & Cd-resistant (WI-38 cells [1]; summary score) | fold induction at 10 µM [2, 9] | fold induction at 10 µM [2, 10] | Assay 6: H2O2-resistant, at 10 uM, human dermal fibroblast (HDF) primary cells [2] | G = mTOR down-regulation (mTOR; 2-point score) | G = mTOR down-regulation (mTOR; summary score) | Luminescence signal for ATP measurement, day-1 Average (WI-38 cells [3]) | Luminescence signal for ATP measurement, day-2 Average (WI-38 cells [3]) | Luminescence signal for ATP measurement, day-3 Average (WI-38 cells [3]) | Luminescence signal for ATP measurement, day-4 Average (WI-38 cells [3]) | other results
1 | CCc1ccccc1NC(=O)c1ccc([N+](=O)[O-])o1 [Gr-1C] | YES | YES | 7.9 | 9.86 | YES | YES | YES | YES | 1 | 1 | 1 | 15.2 | 49.1 | YES | 0 | 0 | 421913 | 545683 | 662368 | 875881 | Luminescence signal for ATP measurement, day-5 Average (WI-38 cells [3]): 819655; viability at 10 µM (WI-38 cells [3]): 79.8%; O = Potential toxicity (WI-38 cells [3]): 1; Q = Potential toxicity (WI-38 cells [3]): 0; PI cell-death imaging without H2O2 (indicating potential toxicity) (WI-38 cells [4]): YES; Percentage of propidium iodide-positive (dead) cells under normal conditions (qualitative) (WI-38 cells [4]): increased the percentage; PI-positive dead cells under normal conditions (WI-38 cells [4]): 3.5±1.3%; Percentage of propidium iodide-positive dead cells (no H2O2 stress treatment), at 10 uM (WI-38 cells [4]): 3.51% ± 1.28%,
2 | O=C(Nc1cccc(Cl)c1)c1ccc([N+](=O)[O-])o1 [Gr-1D] | YES | YES | 3.14 | 3.84 | YES | YES | YES | YES | 1 | 1 | 1 | 2.79 | 49.3 | YES | 0 | 0 | 396843 | 497248 | 542643 | 797305 | Luminescence signal for ATP measurement, day-5 Average (WI-38 cells [3]): 865168; viability at 10 µM (WI-38 cells [3]): 84.3%; O = Potential toxicity (WI-38 cells [3]): 1; Q = Potential toxicity (WI-38 cells [3]): 0; PI cell-death imaging without H2O2 (indicating potential toxicity) (WI-38 cells [4]): YES; Percentage of propidium iodide-positive (dead) cells under normal conditions (qualitative) (WI-38 cells [4]): increased the percentage; PI-positive dead cells under normal conditions (WI-38 cells [4]): 4.2±1.4%; Percentage of propidium iodide-positive dead cells (no H2O2 stress treatment), at 10 uM (WI-38 cells [4]): 4.16% ± 1.39%,
3 | O=C(Nc1cccc(C(F)(F)F)c1)c1ccc([N+](=O)[O-])o1 [Gr-1E] | YES | YES | 6.69 | 8.82 | YES | YES | YES | YES | 1 | 1 | 1 | 1.4 | 31 | YES | 0 | 0 | 474558 | 698358 | 788420 | 1038011 | Luminescence signal for ATP measurement, day-5 Average (WI-38 cells [3]): 1066135; viability at 10 µM (WI-38 cells [3]): 104%; O = Potential toxicity (WI-38 cells [3]): 0; Q = Potential toxicity (WI-38 cells [3]): 0; Percentage of propidium iodide-positive dead cells (no H2O2 stress treatment), at 10 uM (WI-38 cells [4]): 0.71% ± 0.28%,
4 | Cc1ccc(NC(=O)c2ccc([N+](=O)[O-])o2)cc1C [Gr-1F] | YES | YES | 6.65 | 4.8 | YES | YES | YES | YES | 1 | 1 | 1 | 5.84 | 52.3 | YES | 0 | 0 | 383221 | 440655 | 446240 | 534298 | Luminescence signal for ATP measurement, day-5 Average (WI-38 cells [3]): 600633; viability at 10 µM (WI-38 cells [3]): 58.5%; O = Potential toxicity (WI-38 cells [3]): 1; Q = Potential toxicity (WI-38 cells [3]): 1; PI cell-death imaging without H2O2 (indicating potential toxicity) (WI-38 cells [4]): YES; Percentage of propidium iodide-positive (dead) cells under normal conditions (qualitative) (WI-38 cells [4]): increased the percentage; PI-positive dead cells under normal conditions (WI-38 cells [4]): 3.3±0.8%; Percentage of propidium iodide-positive dead cells (no H2O2 stress treatment), at 10 uM (WI-38 cells [4]): 3.27% ± 0.82%,
